Laboratory results reported in patent US20260000351A1, “NON-INVASIVE METHODS OF MEASURING THE DEGREE OF CELLULAR ENERGY METABOLISM” (AMAZON TECHNOLOGIES, INC., priority 2023, published 2026).

What was measured:
Type in all cases: cell-based
[1] = system: Jurkat T cells; test: Radio frequency monitoring device measurement at 64 MHz in Jurkat T cell suspensions (Example 5); settings: for net change in radio frequency magnitude (plain medium subtracted as background): 64 MHz
Protocol: The degree of cellular energy metabolism was monitored by radio frequency in Jurkat T cell suspensions to compare to direct intracellular ATP measurement of Example 4. Jurkat T cell suspensions were maintained as in Example 4. A radio frequency monitoring device was placed in the cell culture and monitored at 64 MHz frequency as a function of time. Cells were stimulated by addition of (a) D-glucose (180 mg/dl final concentration in DMEM), (b) 2-deoxy-D-glucose (2DG, 180 mg/dl final concentration in DMEM), (c) D-glucose (180 mg/dl final concentration) and BAY-876 (a glucose transporter 1 inhibitor, 5 μM final concentration), and (d) DMEM with low D-glucose (5.5 mM, 100 mg/dl, ‘plain medium’). All stimulations were conducted with the same volume of liquid.

[2] = system: Jurkat T cells; test: Radio frequency sensor device measurement of cellular energy metabolism in Jurkat T cell suspension (Example 1); settings: for radio frequency peak in magnitude at 64 MHz: final concentration 200 mg/dl in low D-glucose DMEM, about 8 h
Protocol: Jurkat T cells were obtained from American Type Culture Collection (ATCC) (#TIB-152) and maintained in high D-Glucose Dulbecco's Modified Eagle Medium (DMEM) (THERMO FISHER SCIENTIFIC INC., #10565042, 17.5 mM/315 mg/dl D-glucose) supplemented with 10% fetal bovine serum (FBS, THERMO FISHER SCIENTIFIC INC., #16140071), penicillin/streptomycin (Pen/Strep), beta-Mercaptoethanol (b-ME) in a 37° C. humidified incubator, 5% CO2. At time point 0:00 (hr.: min.), Jurkat T cells (3×10^9) were suspended in three separate solutions of low D-glucose DMEM (THERMO FISHER SCIENTIFIC INC., #10565042, 5.5 mM (100 mg/dl D-glucose) supplemented with fetal bovine serum (10% v/v, THERMO FISHER SCIENTIFIC INC. #16140071), penicillin/streptomycin (Pen/Strep), beta-mercaptoethanol (20 ml of media, 5×10^7 cells per mL each) in tissue culture dishes (10 cm). The cell suspension was placed in an incubator at 37° C. at maximum humidity, carbon dioxide concentration of 5%. Cells were mixed continuously on an orbital shaker (60 rpm). Following 60 minutes of incubation for equilibration, a sensor device of this disclosure was placed in each solution. To the resulting solutions were added 200 μl of media containing 100× D-glucose (e.g., to a final concentration of 200 mg/dl), control media (identical media, but containing low D-glucose (5.5 mM, 100 mg/dl)), and media containing 100× 2-deoxy-D-glucose (identical media, but replacing D-glucose with 2-deoxy-D-glucose at a final concentration of e.g., 200 mg/dl). The radio frequency was detected at 64MHz with the sensor device over the course of approximately 8 h.

[3] = system: Jurkat T cells; test: Luciferase-based assay of intracellular ATP concentration (CELLTITER-GLO 2.0); settings: D-glucose 15.5 mM (280 mg/dl final) versus low D-glucose 5.5 mM
Protocol: Intracellular ATP concentrations were assessed using a luciferase-based assay to determine the rate of ATP production following addition of glucose. Jurkat T cells (1×10^7 cells per well in low D-glucose DMEM (100 μl, 5.5 mM, 100 mg/dl D-glucose)) were aliquoted into flat-bottom 96-well plates. Cells were stimulated with DMEM either containing D-glucose (15.5 mM, 280 mg/dl final solution) or low D-glucose (5.5 mM, 100 mg/dl), an effective difference of 10 mM (180 mg/dl) glucose, at time point 0 min. Cells were quantitatively removed from the incubation plate. An aliquot of cell suspension (50 μl) was transferred onto frozen CELLTITER-GLO® 2.0 (PROMEGA CO.) assay reagent on dry ice. The resulting mixture was thawed, and the ATP concentration measured via light emission in a 96-well plate-compatible luminometer. The resulting curve of luciferase activity in relative luminescence units (RLUs) over time (min. following stimulation) is shown in FIG. 7. […] Glucose transport is rapid as indicated by the rapid increase of ATP concentration following addition of D-glucose.

[4] = 180 mg/dl final concentration in DMEM

SMILES | magnitude at 64 MHz over time (curve shape) ([1]; BAY-876 5 μM final with D-glucose 180 mg/dl final) | time of apex of radio frequency peak ([2]; D-glucose 200 mg/dl final) | radio frequency peak in magnitude at 64 MHz [2] | difference in luminescence (net ATP concentration) over time [3] | magnitude at 64 MHz over time (curve shape) [1, 4] | net change in radio frequency magnitude (plain medium subtracted as background) [1, 4]
Cc1c(NC(=O)c2cc(C(N)=O)nc3cc(F)ccc23)c(C(F)(F)F)nn1Cc1ccc(C#N)cc1 [BAY-876] | a smooth decline becoming linear over time |  |  |  |  | 
O=C[C@H](O)[C@@H](O)[C@H](O)[C@H](O)CO [D-glucose] |  | approximately 4 h | a broad peak was observed | an increase in net ATP concentration followed by a slower decrease in net ATP concentration | both a peak shortly after addition of stimulus, and a more gradual decline | an initial net increase in magnitude followed by a slow net decrease
O=CC[C@@H](O)[C@H](O)[C@H](O)CO [2-deoxy-D-glucose] |  |  | no detectable peak |  | an initial peak, similar to D-glucose, the magnitude at 64 MHz quickly adopts a similar linear decline | only an initial net increase
